These results are taken from patent US9127045B2, “Method of inhibiting bacterial growth and biofilm formation with natural quorum sensing peptides” (UNIVERSITY OF SOUTHERN CALIFORNIA, priority 2005, dated 2015).

Ends that are not written are not given here.

Assay [1] concerns GTFB expression in the wild-type S. mutans. Briefly: Western blot of GTFB expression after addition of CSP to cultures. In kind it is cell-based. The settings on record: CSP added to fresh cultures at time of dilution, 1 to 8 mcg/mL; FIG. 7 panel 1. The method, then: (§1) For the Western blotting, the bacteria were incubated to the desired optical density, subjected to the freeze-thaw cycle and mixed with the sample loading buffer. The samples were heated at 100° C. for 15 minutes and subjected to the PAGE. The number of cells per lane of the gel was kept constant at 10^8 cells. The western blotting was performed in accordance with a standard procedure (Sambrook, J. and Russel D. W. Molecular Cloning, a laboratory manual, 3rd ed. Cold Spring Harbor Laboratory Press, NY, 2001). Briefly, after PAGE the samples were transferred onto the nitrocellulose membrane and the latter subjected to the standard ELISA procedure. The anti-GTFB mouse monoclonal antibody was previously characterized (Fukushima, K., Okada, T., Ochiai, K., Infection and Immunity 61:323-328 (1993), incorporated herein by reference). The secondary antibody (HRP-linked goat anti-mouse) and the detection reagents were purchased from Cell Signaling Technology (Beverly, Mass.).
(§2) Synthetic CSP was dissolved in water to the concentration of 1 mg/mL as described in Li, Y-H et al., J. of Bact., 183:897-908 (2001). […]
(§3) A Western blot analysis was performed to determine the effect of CSP on the level of GTFB expression. […] As a control, the same blot was analyzed with antibody specific to FTF, where it was observed that CSP has no effect on FTF expression (FIG. 7, panel 2).
A general note: Immunoblotting shows a protein as a band on a membrane.

In the next assay the test system is FTF expression. Briefly: Western blot of FTF expression (control) after addition of CSP. In kind it is cell-based, S. mutans. The settings on record: same blot, antibody specific to FTF; FIG. 7 panel 2. The method, then: as §1, §2, §3
The next assay deals with gtfB gene of S. mutans. Briefly: Transcriptional fusion assay (gtfB promoter-luciferase). It is filed as cell-based.
Text: The fusion constructs and the transcription assay were previously described (Goodman, S. D. and Gao, Q., Plasmid 43:85-98 (2000)). Briefly, the constructs comprised the upstream regions of the gtfB and gtfC genes fused to the promoterless coding sequence of the firefly luciferase gene and inserted into the plasmid vector pVA838, a shuttle plasmid capable of propagating in both E. coli and S. mutans marked with erythromycin resistance. The plasmids were introduced into S. mutans GS5 by electroporation and the resulting erythromycin resistant strains were grown in liquid cultures and collected at various optical densities. The reporter gene (luciferase) expression was detected by measuring luminescence upon the addition of luciferin (the substrate for luciferase), see Goodman, S. D. and Gao Q. Plasmid 42:154-157 (1999), incorporated herein by reference.
as §2
The transcriptional fusion assay was performed to determine whether CSP inhibits the expression of the gtfB gene of S. mutans. […] When the expression peaked at the end of the lag phase prior to the exponential growth, the cells were challenged with increasing concentrations of CSP for an incubation period of 10 minutes and assessed for luminescence, the measure of reporter gene expression. […]

For another assay, the system named is S. mutans. Put plainly: In vitro attachment assay to a smooth surface (Petri dish) with sucrose. In kind it is cell-based. The settings on record: CSP at 8 µg/mL for 10 minutes prior to one hour incubation on Petri dishes with sucrose; without CSP up to 51%; FIG. 9. The method, then: The bacteria were grown in liquid cultures to the desired optical density. 20 ml of the cultures were then transferred into Petri dishes and sucrose added to the final concentration of 2%. The incubation was resumed for one hour, after which the liquid fraction was withdrawn and the fresh medium was added into which the layer of attached cells was scraped. The percentage of the attached bacteria was determined as the ratio of the optical densities of the attached to the total (a sum of attached and unattached) bacteria.
Synthetic CSP was dissolved in water to the concentration of 1 mg/mL as described in Li, Y-H et al., J. of Bact., 183:897-908 (2001). The cultures were grown in Todd Hewitt Broth (THB) supplemented with 5% horse serum. CSP was added to the cultures at the time of diluting the overnight culture (time zero of the culture growth) to a designated concentration between 1 and 8 mcg/mL. The incubation then continued up to the optical density where the expression of GTF is maximal (OD 650=0.1). The cultures where then collected and used in Western blotting with anti-glucosyltransferase (gtf) antibody. […]
An in vitro assay was performed to determine whether CSP can inhibit the attachment of S. mutans to a smooth surface. When sucrose was added to the medium, the wild-type S. mutans readily attached to the surface of a Petri dish. […]

Assay [2] concerns S. mutans wild-type strains UA140 and UA159. Put plainly: Growth inhibition of S. mutans culture by CSP pulse (96-well plate, cell density). In kind it is cell-based. The method, then: Previously, it was assumed that quorum sensing may be an on/off type of switching event wherein when the quorum sensing molecule reaches a certain threshold, a new behavior is […] and vice versa. The inventors have unexpectedly discovered that the QS regulated gene expression is not an all-or-nothing type of system, but actually has a dose-dependent response. […] At a 100-fold higher concentration (400 μM), CSP inhibits the growth of a S. mutans culture by 50%.
The experiment was performed in a 96-well plate with triplicate wells for each treatment. Cell density was measured by using a plate reader (BioRad). The experiment was repeated three times. Numbers represent the average of the triplicate samples from one representative experiment. Variations between experiments were within 20%.
These experiments were designed to mimic the conditions of the dental hygiene regimen. Specifically, the bacteria were “pulsed” with CSP. The peptide was added for a mere 10 minutes, washed away and the incubation continued in the fresh medium. In this set-up the inhibitory effect persisted for a long time and became undetectable only after 16 hours of the culture growth. Competition experiments have also shown that a mere 3-hour advantage is sufficient to ensure that a resident species in a biofilm will out compete the newcomer.

Consider SGSLSTFFRLFNRSFTQALGK [CSP], for which the “peak expression of GTFB (Western blot)” value in assay [1] is recorded as “lowered proportionally to the amount of peptide added”. For the same sequence, in the assay with FTF expression, the “FTF expression (Western blot)” value is “no effect”. In the assay with gtfB gene of S. mutans (CSP 8 μg/ml (4 μM)), the “inhibition of the gtf genes” value is listed as “desired inhibition of the gtf genes”. In addition, the “gtfB reporter gene expression (luminescence)” value in the assay with gtfB gene of S. mutans (increasing concentrations of CSP, 10 minutes incubation at peak expression, FIG. 8) is “increasing concentrations of CSP increased the magnitude of repression”. Also, in the assay with S. mutans, the “bacterial cells localized to the attached layer” value is listed as “less than 8%”. Moreover, the “inhibition of growth of S. mutans culture” value in assay [2] (CSP 400 μM, 10 minute pulse, FIG. 12) is recorded as 50%. In addition, in assay [2] (CSP 1.6 mM, 10 minute pulse, FIG. 12), the “effect on cell division and viability” value was “cell division stops and cells begin to die”. The “time of culture growth after which the inhibitory effect became undetectable” value in assay [2] (CSP added for 10 minutes, washed away, incubation in fresh medium) amounted to 16 h.
